Drawing on PubChem BioAssay (NCI), this text covers GI50 and TGI for 16 molecules.

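96-well plates; 48 h exposure; 5 concentrations. Endpoints by linear interpolation between flanking doses. Not reached: highest tested concentration assigned. At the GI50, growth is halved. TGI: concentration producing complete growth inhibition.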

Some test systems named below: HS 578T breast; MCF7 breast; T-47D breast; MDA-MB-435; PC-3 prostate.
Common to all, as to experiment: DTP human tumour cell line panel, 48 h

As usually defined, the GI50 is the concentration that inhibits growth by half. One may read the TGI as the concentration giving total growth inhibition. A low value points to more potent growth arrest. Turning to `CC(=O)O[C@@H]1CC2C(C)(C)CCCC2(C)C2=C1C(=O)C(C(C)C)=CC2=O` (stereo partly drawn), the GI50 with HS 578T breast was 1.79 µM; with MCF7 breast, 1.05 µM; in the experiment on T-47D breast it was 1.49 µM; in the experiment on MDA-MB-435, 0.481 µM; in the experiment with PC-3 prostate, 2.45 µM. The TGI is more than 100 µM in the experiment on HS 578T breast; more than 100 µM in the experiment on MCF7 breast; 7.31 µM in the experiment with T-47D breast; 1.93 µM with MDA-MB-435; 12.9 µM in the experiment on PC-3 prostate.
`CCCCCCCCCCCC[n+]1ccc(CCCCCCCCC)cc1`: in the experiment with T-47D breast, the 50% growth inhibitory concentration (GI50) was 0.28 µM and the TGI was 1.54 µM. Moreover, in the experiment on PC-3 prostate, the GI50 is 0.597 µM and the TGI is 1.93 µM.
Turning to `CC(=O)Nc1ccc2c(c1)oc(=O)c1cc(NC(C)=O)ccc12`, the GI50 in the experiment with HS 578T breast is 63.4 µM; in the experiment on MCF7 breast, 59.8 µM; in the experiment on T-47D breast it was 59.6 µM; with MDA-MB-435, more than 100 µM; in the experiment on PC-3 prostate, 92.4 µM. Moreover, the TGI with HS 578T breast, in the experiment on MCF7 breast, with T-47D breast, in the experiment with MDA-MB-435 and in the experiment with PC-3 prostate was more than 100 µM in each case.
Regarding `c1cnc2[nH]cc(-c3csc(-c4cn(CCCCN5CCOCC5)c5ccccc45)n3)c2c1`, the GI50 is 1.77 µM in the experiment on HS 578T breast; 1.56 µM in the experiment with MCF7 breast; 1.33 µM in the experiment on T-47D breast; 1.72 µM in the experiment on MDA-MB-435; 1.59 µM in the experiment on PC-3 prostate. The TGI in the experiment with HS 578T breast is 4.98 µM; with MCF7 breast it was 3.57 µM; in the experiment on T-47D breast, 3.9 µM; in the experiment on MDA-MB-435 it was 3.2 µM; in the experiment with PC-3 prostate, 4.01 µM.
As to `COC(=O)c1csc(-c2nc(CCNC(=O)OC(C)(C)C)sc2Br)n1`, the TGI with HS 578T breast, in the experiment on MCF7 breast, in the experiment with MDA-MB-435 and in the experiment with PC-3 prostate was more than 100 µM each time.
Regarding `CN(C)c1ccc2cc(-c3ccccc3F)c(N)nc2c1`, the GI50 is 2.83 µM in the experiment on HS 578T breast; 0.431 µM in the experiment with MCF7 breast; 1.26 µM with T-47D breast; 0.288 µM in the experiment with MDA-MB-435; 2.21 µM in the experiment with PC-3 prostate. In addition, the TGI in the experiment on HS 578T breast came out at 18.5 µM; in the experiment on MCF7 breast it was 14.4 µM; in the experiment on T-47D breast it was 13.6 µM; with MDA-MB-435, 10.3 µM; in the experiment on PC-3 prostate, 15.2 µM.
In the case of `Nc1nc2c(c(=O)[nH]1)CN(c1ccc(S(N)(=O)=O)cc1)CN2`, the TGI in the experiment on HS 578T breast, in the experiment on MCF7 breast, in the experiment with T-47D breast, in the experiment on MDA-MB-435 and in the experiment on PC-3 prostate was more than 100 µM in each case.
For the molecule `CC(=O)OCC1OC(n2ccc(=O)[nH]c2=O)C(OC(C)=O)C1OC(C)=O` (stereo not drawn), the GI50 in the experiment with HS 578T breast, in the experiment with MCF7 breast, in the experiment with T-47D breast, in the experiment with MDA-MB-435 and with PC-3 prostate was more than 100 µM throughout. In addition, the concentration for total growth inhibition (TGI) with HS 578T breast, in the experiment on MCF7 breast, with T-47D breast, in the experiment with MDA-MB-435 and in the experiment with PC-3 prostate was more than 100 µM in each case.
As to `Clc1nc(Cl)c2c(ncn2C/C=C\Cn2cnc3c(Cl)nc(Cl)nc32)n1`, the GI50 in the experiment with HS 578T breast was 1.44 µM; with MCF7 breast, 1.45 µM; with T-47D breast it was 1.32 µM; with MDA-MB-435 it was 1.93 µM; with PC-3 prostate, 2.31 µM. The TGI was determined as 5.36 µM with HS 578T breast; 3.17 µM in the experiment on MCF7 breast; 3.06 µM in the experiment with T-47D breast; 4.51 µM in the experiment with MDA-MB-435; 5.58 µM with PC-3 prostate.
In the case of `C=C1CC[C@@H]2[C@](C)(COC(C)=O)[C@H](OC(C)=O)CC[C@@]2(C)[C@@H]1CC(Nc1ccc(S(=O)(=O)Nc2nccc(C)n2)cc1)C1=CCOC1=O` (stereo partly drawn), the GI50 in the experiment with HS 578T breast was 6.65 µM; with MCF7 breast it was 2.27 µM; in the experiment on T-47D breast it was 2.77 µM; in the experiment with MDA-MB-435 it was 2.92 µM; in the experiment on PC-3 prostate, 4.46 µM. The TGI with HS 578T breast stood at 43 µM; in the experiment with MCF7 breast, 12.5 µM; with T-47D breast it was 8.33 µM; with MDA-MB-435, 10.4 µM; with PC-3 prostate, 15.7 µM.
For `C=C1C(=O)O[C@H]2[C@H]1CC/C(COC(=O)N1CCC[C@H]1C(=O)Nc1ccc(OC)c(C(N)=O)c1O)=C\CC[C@@]1(C)O[C@@H]21`, the GI50 in the experiment on HS 578T breast is 17.9 µM; in the experiment on MCF7 breast, 2.38 µM; in the experiment with T-47D breast it was 2.42 µM; in the experiment on MDA-MB-435, 3.8 µM; in the experiment on PC-3 prostate it was 4.95 µM. Besides, the TGI in the experiment with HS 578T breast is more than 100 µM; in the experiment with MCF7 breast, 9.55 µM; with T-47D breast, 6.7 µM; with MDA-MB-435, 15.9 µM; in the experiment with PC-3 prostate it was 18.9 µM.
In the case of `C=C(C)C(=O)O[C@H]1[C@H]2[C@H](OC(=O)[C@H]2C)[C@H](O)[C@@H](C)[C@@H]2C=CC(=O)[C@]21C`, the concentration for total growth inhibition (TGI) in the experiment on HS 578T breast came out at 32.5 µM; with MCF7 breast it was 15.5 µM; in the experiment with T-47D breast, 12.5 µM; in the experiment on MDA-MB-435 it was 7.28 µM; in the experiment with PC-3 prostate, 18.5 µM.
Take `O=NNc1nc(-c2cccnc2)nc2ccccc12`: the TGI in the experiment on HS 578T breast, in the experiment on MCF7 breast, in the experiment with T-47D breast and with PC-3 prostate was more than 100 µM in each case.
`COC(=O)CNC(=O)[C@@H](OC)[C@@H]1Cc2cc3cc(OC4CC(OC5CC(O)C(O)C(C)O5)C(O)C(C)O4)c(C)c(O)c3c(O)c2C(=O)[C@H]1OC1CC(OC2CC(OC3CC(C)(O)C(O)C(C)O3)C(O)C(C)O2)C(O)C(C)O1` (stereo partly drawn): the GI50 is 0.123 µM in the experiment with HS 578T breast; 0.0546 µM with MCF7 breast; 0.256 µM in the experiment on T-47D breast; 0.166 µM with MDA-MB-435; 0.234 µM in the experiment with PC-3 prostate. For the same molecule, the TGI with HS 578T breast is 2.64 µM; with MCF7 breast it was more than 50 µM; with T-47D breast, more than 50 µM; with MDA-MB-435, 1.25 µM; with PC-3 prostate it was more than 50 µM.
For the molecule `COc1c(N2CCN(CN3C(=O)C(=Nc4ccc(S(=O)(=O)Nc5ncccn5)cc4)c4ccccc43)C(C)C2)c(F)cc2c(=O)c(C(=O)O)cn(C3CC3)c12` (stereo not drawn), the GI50 is more than 50 µM with HS 578T breast, 16.5 µM with MCF7 breast, more than 50 µM in the experiment with MDA-MB-435 and more than 50 µM with PC-3 prostate. Further, the TGI with HS 578T breast, with MCF7 breast, with MDA-MB-435 and with PC-3 prostate was more than 50 µM each time.
Consider `COc1ccc2c(c1)OC(N(C(C)=O)C(C)=O)=C(C#N)C2c1ccc(F)cc1` (stereo not drawn), for which the GI50 is 5.19 µM in the experiment with HS 578T breast, 0.593 µM with MCF7 breast, 4.98 µM in the experiment on T-47D breast and 2.2 µM in the experiment on PC-3 prostate. Moreover, the TGI with HS 578T breast, in the experiment on MCF7 breast, in the experiment with T-47D breast and in the experiment with PC-3 prostate was more than 100 µM throughout.
